Results: patent publication US11208422B2, “Substituted bridged diazepane derivatives and use thereof as TASK-1 and TASK-3 inhibitors” (Bayer Pharma Aktiengesellschaft, priority 2017, dated 2021)

Assays:
Type in all cases: cell-based
recombinant TASK-3 [1] = molecular target: T1, recombinant TASK-3 (Homo sapiens (Human), UniProt Q9NPC2); test: Two-electrode voltage clamp analysis of human TASK-3 channel expressed in Xenopus laevis oocytes; conditions: TASK-3 IC50, human TASK-3 in Xenopus laevis oocytes
Description: (§1) Xenopus laevis oocytes were selected as described elsewhere by way of illustration [Decher et al., FEBS Lett. 492, 84-89 (2001)]. […] For the electrophysiological analysis of the channel proteins expressed in the oocytes, the two-electrode voltage clamp technique [Stühmer, Methods Enzymol. 207, 319-339 (1992)] was used. The measurements were conducted as described [Decher et al., FEBS Lett. 492, 84-89 (2001)] at room temperature (21-22° C.) using a Turbo TEC 10CD amplifier (NPI), recorded at 2 kHz and filtered with 0.4 kHz. Substance administration was performed using a gravitation-driven perfusion system. Here, the oocyte is located in a measuring chamber and exposed to the solvent stream of 10 ml/min. The level in the measuring chamber is monitored and regulated by sucking off the solution using a peristaltic pump.

recombinant TASK-3 [2] = molecular target: T1, recombinant TASK-3; test: Inhibition of recombinant TASK-3 in stably transfected CHO cells (KCl-induced depolarization, voltage-sensitive dye, FLIPR); conditions: depolarization induced by 40 mM potassium chloride, some mean values from multiple determinations
Description: (§2) The compounds of the invention were tested here with administration of 40 mM of potassium chloride in the presence of a voltage-sensitive dye using the method described in detail in the following references [Whiteaker et al., Validation of FLIPR membrane potential dye for high-throughput screening of potassium channel modulators, J. Biomol. Screen. 6 (5), 305-312 (2001); Molecular Devices FLIPR Application Note: Measuring membrane potential using the FLIPR® membrane potential assay kit on Fluorometric Imaging Plate Reader (FLIPR®) systems, http://www.moleculardevices.com/reagents-supplies/assay-kits/ion-channels/flipr-membrane-potential-assay-kits]. The activity of the test substances was determined as their ability to inhibit a depolarization induced in the recombinant cells by 40 mM potassium chloride. The concentration which can block half of this depolarization is referred to as IC50.

recombinant TASK-1 [3] = molecular target: T2, recombinant TASK-1 (Homo sapiens (Human), UniProt O14649); test: Inhibition of recombinant TASK-1 in stably transfected CHO cells (KCl-induced depolarization, voltage-sensitive dye, FLIPR); conditions: depolarization induced by 40 mM potassium chloride, some mean values from multiple determinations
Description: as §2

recombinant TASK-1 [4] = molecular target: T2, recombinant TASK-1; test: Two-electrode voltage clamp analysis of human TASK-1 channel expressed in Xenopus laevis oocytes; conditions: TASK-1 IC50, human TASK-1 in Xenopus laevis oocytes
Description: as §1

T2 sequence (O14649 whole entry): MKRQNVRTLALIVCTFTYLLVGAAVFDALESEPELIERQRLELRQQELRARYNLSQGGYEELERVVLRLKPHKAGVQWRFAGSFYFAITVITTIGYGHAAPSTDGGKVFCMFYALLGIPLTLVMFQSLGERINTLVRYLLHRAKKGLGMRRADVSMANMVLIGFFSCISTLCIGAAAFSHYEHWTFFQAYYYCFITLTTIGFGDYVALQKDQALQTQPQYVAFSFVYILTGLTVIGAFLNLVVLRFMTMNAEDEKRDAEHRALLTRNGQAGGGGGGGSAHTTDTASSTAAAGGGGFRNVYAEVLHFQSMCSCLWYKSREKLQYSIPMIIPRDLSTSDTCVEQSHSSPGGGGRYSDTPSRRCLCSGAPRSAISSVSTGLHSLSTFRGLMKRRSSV
T1 sequence (Q9NPC2 whole entry, the tested form may be a part): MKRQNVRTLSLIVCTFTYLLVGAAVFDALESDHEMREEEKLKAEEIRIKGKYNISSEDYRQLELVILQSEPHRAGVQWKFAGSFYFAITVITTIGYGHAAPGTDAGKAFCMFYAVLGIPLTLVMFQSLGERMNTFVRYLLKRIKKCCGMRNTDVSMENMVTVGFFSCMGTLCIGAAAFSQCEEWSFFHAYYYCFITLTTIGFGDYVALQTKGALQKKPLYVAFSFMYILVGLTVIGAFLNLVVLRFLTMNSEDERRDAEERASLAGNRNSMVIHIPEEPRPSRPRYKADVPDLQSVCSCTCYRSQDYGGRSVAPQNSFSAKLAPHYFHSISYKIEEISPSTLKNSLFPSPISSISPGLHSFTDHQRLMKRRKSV

SMILES | IC50 (recombinant TASK-3 [1]) [µM] | IC50 (recombinant TASK-3 [2]) [µM] | IC50 (recombinant TASK-1 [3]) [µM] | IC50 (recombinant TASK-1 [4]) [µM]
COc1ccc(F)c(C(=O)N2C3CCC2CN(Cc2c(-c4ccc(Cl)cn4)nc4ccccn24)CC3)n1 (single isomer, unassigned) [Example 15, [3-{[2-(5-Chloropyridin-2-yl)imidazo[1,2-a]pyridin-3-yl]methyl}-3,9-diazabicyclo[4.2.1]non-9-yl](3-fluoro-6-methoxypyridin-2-yl)methanone] | 0.0155 ± 0.0015 | 0.0073 | 0.25 | 0.00754 ± 0.0014
COc1ccc(F)c(C(=O)N2C3CCN(Cc4c(-c5ccc(Cl)cc5)nc5ccccn45)CC2COC3)n1 (single isomer, unassigned) [Example 12] | 0.013 ± 0.0009 | 0.0025 | 0.0605 | 0.0176 ± 0.0022
COc1ccc(F)c(C(=O)N2C3CCN(Cc4c(-c5ccc(Cl)cc5)nc5ccccn45)CC2COC3)n1 (single isomer, unassigned) [Example 11] | 0.0048 ± 0.0004 | 0.0011 | 0.113 | 0.0114 ± 0.0022
Cc1nonc1C(=O)N1C2CCN(Cc3c(-c4ccc(Cl)cc4)nc4ncccn34)CC1COC2 (racemic) [Example 76, [3-{[2-(4-chlorophenyl)imidazo[1,2-a]pyrimidin-3-yl]methyl}-8-oxa-3,10-diazabicyclo[4.3.1]dec-10-yl](4-methyl-1,2,5-oxadiazol-3-yl)methanone] |  | 0.066 | 1.4 | 
COc1ccc(F)c(C(=O)N2CCC3CCC2CN3Cc2c(-c3ccc(Cl)cn3)nc3ccccn23)n1 (centres unmarked) [Example 19] |  | 0.58 | 13.5 | 
O=C(c1ccccc1F)N1C2CCC1CN(Cc1c(-c3ccc(Cl)cc3)nc3ncccn13)CC2 (single isomer, unassigned) [Example 80] |  | 0.093 | 4.5 | 
COc1ccc(F)c(C(=O)N2CCC3CCC2CN3Cc2c(-c3ccc(Cl)cc3)nc3ccccn23)n1 (centres unmarked) [Example 27] |  | 0.003 | 0.15 | 
COc1cccc(C(=O)N2CCC3CCC2CN3Cc2c(-c3ccc(C(C)C)cc3)nc3ncccn23)n1 (centres unmarked) [Example 41] |  | 0.16 | 2.2 | 
Nc1nonc1C(=O)N1CCC2CCC1CN2Cc1c(-c2ccc(Cl)cc2)nc2ncccn12 (centres unmarked) [Example 35] |  | 0.5 | 24 | 
COc1ccc(F)c(C(=O)N2CCC3CCC2CN3Cc2c(-c3ccc(C(C)C)cc3)nc3ncccn23)n1 (centres unmarked) [Example 49] |  | 0.54 | 5.5 | 
